Experimental data reported in patent US11613536B2, “Heterocyclic compounds as immunomodulators” (Incyte Corporation, priority 2016, dated 2023).

Target: PD-1/PD-L1 protein/protein interaction (Homo sapiens (Human), UniProt Q9NZQ7)
Assay: PD-1/PD-L1 Homogeneous Time-Resolved Fluorescence (HTRF) Binding Assay
Conditions: recombinant human PD-L1 (19-238) His-tag 10 nM, human PD-1 (25-167) Fc tag 3 nM, 25° C., PBS pH 7.4
Protocol: The assays were conducted in a standard black 384-well polystyrene plate with a final volume of 20 μL. Inhibitors were first serially diluted in DMSO and then added to the plate wells before the addition of other reaction components. The final concentration of DMSO in the assay was 1%. The assays were carried out at 25° C. in the PBS buffer (pH 7.4) with 0.05% Tween-20 and 0.1% BSA. Recombinant human PD-L1 protein (19-238) with a His-tag at the C-terminus was purchased from AcroBiosystems (PD1-H5229). Recombinant human PD-1 protein (25-167) with Fc tag at the C-terminus was also purchased from AcroBiosystems (PD1-H5257). PD-L1 and PD-1 proteins were diluted in the assay buffer and 10 μL was added to the plate well. Plates were centrifuged and proteins were preincubated with inhibitors for 40 minutes. The incubation was followed by the addition of 10 μL of HTRF detection buffer supplemented with Europium cryptate-labeled anti-human IgG (PerkinElmer-AD0212) specific for Fc and anti-His antibody conjugated to SureLight®-Allophycocyanin (APC, PerkinElmer-AD0059H). After centrifugation, the plate was incubated at 25° C. for 60 min. before reading on a PHERAstar FS plate reader (665 nm/620 nm ratio). Final concentrations in the assay were—3 nM PD1, 10 nM PD-L1, 1 nM europium anti-human IgG and 20 nM anti-His-Allophycocyanin. IC50 determination was performed by fitting the curve of percent control activity versus the log of the inhibitor concentration using the GraphPad Prism 5.0 software.

Sequence of PD-1/PD-L1 protein/protein interaction (Q9NZQ7 19-238): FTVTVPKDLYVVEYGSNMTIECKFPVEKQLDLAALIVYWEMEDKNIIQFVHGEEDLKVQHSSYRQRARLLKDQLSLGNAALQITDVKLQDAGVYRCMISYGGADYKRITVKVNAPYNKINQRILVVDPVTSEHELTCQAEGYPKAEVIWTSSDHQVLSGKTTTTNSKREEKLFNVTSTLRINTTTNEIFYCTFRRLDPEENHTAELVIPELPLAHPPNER

For Cc1c(NC(=O)c2ncc(CNCCO)n2C)cccc1-c1ccccc1 [Example 5, 5-{[(2-hydroxyethyl)amino]methyl}-1-methyl-N-(2-methylbiphenyl-3-yl)-1H-imidazole-2-carboxamide], the IC50 was at most 0.1 µM.
Cn1nc(C(=O)Nc2cccc(-c3ccccc3F)c2C#N)cc1CNCCO [Example 11, N-(2-cyano-2′-fluorobiphenyl-3-yl)-5-{[(2-hydroxyethyl)amino]methyl}-1-methyl-1H-pyrazole-3-carboxamide] was tested, and the IC50 was at most 0.1 µM.
In the case of Cc1c(COc2cc(OCc3cncc(C#N)c3)c(CN3CCCC[C@H]3C(=O)O)cc2Cl)cccc1-c1cccc(NC(=O)c2ncc(CN3CC[C@@H](O)C3)s2)c1C [Example 18, (S)-1-(5-chloro-2-((5-cyanopyridin-3-yl)methoxy)-4-((3′-(5-(((R)-3-hydroxypyrrolidin-1-yl)methyl)thiazole-2-carboxamido)-2,2′-dimethyl-[1,1′-biphenyl]-3-yl)methoxy)benzyl)piperidine-2-carboxylic acid], the IC50 is reported as at most 0.1 µM.
Cc1c(NC(=O)c2nc(Cl)c(CNCCO)s2)cccc1-c1ccccc1 [Example 8, 4-chloro-5-{[(2-hydroxyethyl)amino]methyl}-N-(2-methylbiphenyl-3-yl)-1,3-thiazole-2-carboxamide] gave an IC50 of at most 0.1 µM.
Cc1c(NC(=O)c2cc(CN3CC[C@@H](O)C3)n(C)n2)cccc1-c1cccc(NC(=O)c2ncc(CN3CC[C@@H](O)C3)s2)c1C [Example 19, 5-(((R)-3-hydroxypyrrolidin-1-yl)methyl)-N-(3′-(5-(((R)-3-hydroxypyrrolidin-1-yl)methyl)-1-methyl-1H-pyrazole-3-carboxamido)-2,2′-dimethyl-[1,1′-biphenyl]-3-yl)thiazole-2-carboxamide] was tested, and the IC50 was at most 0.1 µM.
Compound Cc1c(NC(=O)c2cc(CN3CCCC[C@H]3C(=O)O)n(C)n2)cccc1-c1ccccc1 [Example 6, (2S)-1-[(1-methyl-3-{[(2-methylbiphenyl-3-yl)amino]carbonyl}-1H-pyrazol-5-yl)methyl]piperidine-2-carboxylic acid] has an IC50 of at most 0.1 µM.
Compound Cc1c(COc2cc(OCc3cncc(C#N)c3)c(CN3CCCC[C@H]3C(=O)O)cc2Cl)cccc1-c1cccc(NC(=O)c2ncc(CNCCO)s2)c1C [Example 17, (S)-1-(5-chloro-2-((5-cyanopyridin-3-yl)methoxy)-4-((3′-(5-(((2-hydroxyethyl)amino)methyl)thiazole-2-carboxamido)-2,2′-dimethyl-[1,1′-biphenyl]-3-yl)methoxy)benzyl)piperidine-2-carboxylic acid] has an IC50 of at most 0.1 µM.
With Cc1c(NC(=O)c2ncc(CN3CCCC[C@H]3C(=O)O)n2C)cccc1-c1ccccc1 [Example 4, (2S)-1-[(1-methyl-2-{[(2-methylbiphenyl-3-yl)amino]carbonyl}-1H-imidazol-5-yl)methyl]piperidine-2-carboxylic acid] the IC50 was 0.1 to 0.5 µM.
Compound Cc1c(NC(=O)c2cc(CNCCO)n(C)n2)cccc1-c1ccccc1 [Example 7, 5-{[(2-hydroxyethyl)amino]methyl}-1-methyl-N-(2-methylbiphenyl-3-yl)-1H-pyrazole-3-carboxamide] has an IC50 of at most 0.1 µM.
Compound Cn1nc(C(=O)Nc2cccc(-c3ccc4c(c3)OCCO4)c2C#N)cc1CNCCO [Example 10, N-[2-cyano-3-(2,3-dihydro-1,4-benzodioxin-6-yl)phenyl]-5-{[1(2-hydroxyethyl)amino]methyl}-1-methyl-1H-pyrazole-3-carboxamide] has an IC50 of at most 0.1 µM.
Cc1nc(C(=O)Nc2cccc(-c3ccccc3)c2C)sc1CNCCO [Example 9, 5-{[(2-hydroxyethyl)amino]methyl}-4-methyl-N-(2-methylbiphenyl-3-yl)-1,3-thiazole-2-carboxamide] gave an IC50 of at most 0.1 µM.
For Cc1c(NC(=O)c2ncc(CN3CCCC[C@H]3C(=O)O)s2)cccc1-c1ccccc1 [Example 1, (2S)-1-[(2-{[(2-methylbiphenyl-3-yl)amino]carbonyl}-1,3-thiazol-5-yl)methyl]piperidine-2-carboxylic acid], the IC50 was at most 0.1 µM.
COc1cccc(-c2cccc(NC(=O)c3ncc(CNCCO)n3C)c2C#N)c1F [Example 15, N-(2-cyano-2′-fluoro-3′-methoxybiphenyl-3-yl)-5-{[(2-hydroxyethyl)amino]methyl}-1-methyl-1H-imidazole-2-carboxamide] was tested, and the IC50 was at most 0.1 µM.
With Cc1c(NC(=O)c2ncc(CNCCO)o2)cccc1-c1ccccc1 [Example 3, 5-{[(2-hydroxyethyl)amino]methyl}-N-(2-methylbiphenyl-3-yl)-1,3-oxazole-2-carboxamide] the IC50 was 0.1 to 0.5 µM.
COc1cccc(-c2cccc(NC(=O)c3cc(CNCCO)n(C)n3)c2C#N)c1F [Example 12, N-(2-cyano-2′-fluoro-3′-methoxybiphenyl-3-yl)-5-{[(2-hydroxyethyl)amino]methyl}-1-methyl-1H-pyrazole-3-carboxamide] showed an IC50 of at most 0.1 µM.
Work on Cn1c(CNCCO)cnc1C(=O)Nc1cccc(-c2cccc3c2cnn3C)c1C#N [Example 16, N-[2-cyano-3-(1-methyl-1H-indazol-4-yl)phenyl]-5-{[(2-hydroxyethyl)amino]methyl}-1-methyl-1H-imidazole-2-carboxamide] yielded an IC50 of 0.1 to 0.5 µM.
Cn1c(CNCCO)cnc1C(=O)Nc1cccc(-c2ccc3c(c2)OCCO3)c1C#N [Example 14, N-[2-cyano-3-(2,3-dihydro-1,4-benzodioxin-6-yl)phenyl]-5-{[1(2-hydroxyethyl)amino]methyl}-1-methyl-1H-imidazole-2-carboxamide] gave an IC50 of at most 0.1 µM.
With Cc1c(NC(=O)c2ncc(CNCCO)s2)cccc1-c1ccccc1 [Example 2, 5-{[(2-hydroxyethyl)amino]methyl}-N-(2-methylbiphenyl-3-yl)-1,3-thiazole-2-carboxamide] the IC50 was at most 0.1 µM.
Cn1nc(C(=O)Nc2cccc(-c3cccc4c3cnn4C)c2C#N)cc1CNCCO [Example 13, N-[2-cyano-3-(1-methyl-1H-indazol-4-yl)phenyl]-5-{[(2-hydroxyethyl)amino]methyl}-1-methyl-1H-pyrazole-3-carboxamide] gave an IC50 of at most 0.1 µM.
